Assay results taken from patent US20080038840A1, “Fluorescent Method And Compounds To Monitor Protein-Lipid Binding” (EUROPAEISCHES LABORATORIUM FUER MOLEKULARBIOLOGIE, priority 2004, published 2008).
Entries after “also recorded” stand apart in the source; their conditions may differ. Where two headings read alike, the source gives them in different places.

Columns and labels:
[1] = Excitation and emission values of the fluorescent dyes in solvent; format: physicochemical; conditions: for Emission / Excitation: measured in methanol
Description: Some exemplary fluorescent dyes according to the invention together with values for excitation and emission are included in table 1. […] The excitation and emission values of the fluorescent dyes were measured in methanol, which simulates a protein-environment, thus yielding a shift of the emission to shorter wavelengths. For comparison, excitation and emission values for compound 10 were also measured in HEPES buffer (i.e. under initial, aqueous assay conditions). In this aqueous environment, the excitation is 620 nm and the emission is 688 nm compared to an emission at 662 nm in methanol.
(§1) The fluorescent dye will bind to any lipid-binding site of the protein, and the resulting increase in the hydrophobicity surrounding of the dye will result in an increase in the intensity of the fluorescence and a shift in the emission to a shorter wavelength. The emission-wavelength of a compound according to formula I in a hydrophobic surrounding can be determined in a non-aqueous solution such as methanol.

[2] = biological target: bovine serum albumin (BSA) (Bos taurus, UniProt P02769); assay: Titration of fluorescent dye with bovine serum albumin (BSA); format: binding; conditions: for wavelength of maximal emission intensity: FIG. 1a/1b
Sequence of bovine serum albumin (BSA) (P02769 25-607): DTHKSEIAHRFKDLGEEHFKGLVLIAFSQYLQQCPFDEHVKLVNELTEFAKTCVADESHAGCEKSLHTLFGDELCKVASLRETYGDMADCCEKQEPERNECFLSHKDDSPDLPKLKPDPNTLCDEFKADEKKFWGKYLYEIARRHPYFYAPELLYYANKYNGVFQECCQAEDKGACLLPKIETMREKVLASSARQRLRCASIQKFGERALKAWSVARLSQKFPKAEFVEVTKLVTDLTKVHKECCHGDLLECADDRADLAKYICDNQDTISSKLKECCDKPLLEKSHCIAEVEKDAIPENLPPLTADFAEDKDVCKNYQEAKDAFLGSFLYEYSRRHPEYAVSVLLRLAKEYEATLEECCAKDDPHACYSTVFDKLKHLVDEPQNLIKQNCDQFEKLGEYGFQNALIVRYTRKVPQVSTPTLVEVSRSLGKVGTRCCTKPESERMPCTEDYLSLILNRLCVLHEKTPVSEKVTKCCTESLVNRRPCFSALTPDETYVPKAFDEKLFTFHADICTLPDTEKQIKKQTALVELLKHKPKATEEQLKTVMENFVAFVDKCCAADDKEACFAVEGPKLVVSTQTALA
Excerpt: (§2) In a preferred embodiment of the invention, the assay for identifying lipid binding sites of proteins using the compounds according to formula I as defined above, comprises the steps of • a) dissolving a compound according to formula I as defined above in an aqueous solvent, • b) adding the protein to be tested for containing a lipid binding site, preferably in various concentrations, • c) measuring the intensity of fluorescence emission at the wavelength of maximal emission of the fluorescent dye.
as §1
(§3) For determining the submaximal concentration of dye binding to the protein, the latter was titrated until no further fluorescence increase at 620 nm could be detected.

Water solubility = format: physicochemical
[3] = biological target: T1, peroxisomal matrix protein (SCP2) (Homo sapiens, UniProt P22307); assay: Titration of fluorescent dye with peroxisomal matrix protein (SCP2); format: binding; conditions: dye 250 nM, FIG. 2b
T1 sequence (P22307 1-143 isoform P22307-2): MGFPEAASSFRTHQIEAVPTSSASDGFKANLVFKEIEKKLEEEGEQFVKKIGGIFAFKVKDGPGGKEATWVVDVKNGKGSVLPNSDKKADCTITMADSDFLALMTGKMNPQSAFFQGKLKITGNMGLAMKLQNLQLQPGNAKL
Excerpt: as §2, §1, §3

cytochrome c = cytochrome c (Homo sapiens, UniProt P99999); conditions: whole cells; cited from earlier work
Sequence of cytochrome c (P99999 whole entry, species assumed): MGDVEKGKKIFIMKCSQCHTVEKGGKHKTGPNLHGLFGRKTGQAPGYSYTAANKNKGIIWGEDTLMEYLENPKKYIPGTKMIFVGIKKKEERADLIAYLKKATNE

BSA = BSA (Bos taurus, UniProt P02769)
Sequence of BSA (P02769 25-607): as the sequence (P02769 25-607) above
Description: Depending on the strength of the binding of the ligand to the lipid binding site of the protein, the ligand releases the fluorescent dye from the hydrophobic lipid binding site. This can be measured by a decrease of the intensity of fluorescence at the emission wavelength of the dye in hydrophobic surrounding, as imitated by dissolving the dye in methanol.
Increasing concentrations of lipid or drug were added to replace the dye in a dose-dependent fashion. Fluorescence values at 620 nm were corrected for basal fluorescence at 620 nm prior to protein addition as well as for dilution effects from adding increasing ligand concentrations. The starting fluorescence value minus the value at a given ligand concentration was plotted as % replacement.

Row | Emission [1] [nm] | Excitation [1] [nm] | SMILES | other results
1 | 629 | 540 | CCN(CC)c1ccc2nc3c4cc(O)ccc4c(=O)cc-3oc2c1 [compound 1] | 
2 | 640 | 550 | CCN(CC)c1ccc2nc3c4cc(O)ccc4c(=O)c(Br)c-3oc2c1 [compound 2] | 
3 | 643 | 549 | CCN(CC)c1ccc2nc3c4cc(O)ccc4c(=O)c(Cl)c-3oc2c1 [compound 3] | 
4 | 650 | 552 | CCN(CC)c1ccc2nc3c4ccc(O)cc4c(=O)c(Br)c-3oc2c1 [compound 4, 6-Bromo-9-diethylamino-3-hydroxy-benzo[a]phenoxazin-5-one] | 
5 | 653 | 562 | CCN(CC)c1ccc2nc3c4ccc(O)c(Br)c4c(=O)c(Br)c-3oc2c1 [compound 5, 4,6-Dibromo-9-diethylamino-3-hydroxy-benzo[a]phenoxazin-5-one] | 
6 | 665 | 580 | CCN(CC)c1cc(C)c2nc3c4ccc(O)cc4c(=O)cc-3sc2c1 [compound 6, 9-Diethylamino-3-hydroxy-11-methyl-benzo[a]phenothiazin-5-one] | 
7 | 664 | 585 | CCCCOc1ccc2c3nc4c(C)cc(N(CC)CC)cc4sc-3cc(=O)c2c1 [compound 7] | Quantum Yield [1]: 0.29
8 | 650 | 556 | CCCCOc1ccc2c3nc4ccc(N(CC)CC)cc4oc-3c(Br)c(=O)c2c1 [compound 8] | Quantum Yield [1]: 0.35
9 | 631 | 544 | CCN(CC)c1ccc2nc3c4cc(OCCCC(=O)O)ccc4c(=O)cc-3oc2c1 [compound 11, nile red butyric acid] | change of fluorescence on titration with BSA ([2]; FIG. 1a (dye 0.25 μM) / FIG. 1b (dye 3 μM)): shift in the emission to a shorter wavelength and an increase in the intensity of the fluorescence; binding of BSA to dye compared with SCP2 and MAO B ([2]; dye 250 nM, FIG. 2b): strongest binding; wavelength of maximal emission intensity ([2]; in the absence of BSA): 657 nm; wavelength of maximal emission intensity ([2]; in the presence of BSA): 620 nm; water solubility (Water solubility): increased water solubility; binding of SCP2 to dye compared with BSA and MAO B [3]: weakest
10 |  |  | CCN(CC)c1ccc2nc3c4ccccc4c(=O)cc-3oc2c1 [nile red] | quenching of fluorescence by cytochrome c (cytochrome c): strong quenching effect
11 |  |  | N[C@@H](Cc1c[nH]c2ccccc12)C(=O)O [tryptophan] | release of dye from BSA (BSA; 2BrNR 250 nM, 5.54 μM BSA, 282.62 μM ligand, FIG. 5a): not able to release all the dye from BSA; release of dye from BSA (BSA; NRBA, 2 μM BSA, 1 mM ligand, FIG. 5b): not able to release all the dye from BSA; lipid binding sites of albumin occupied / dye molecules replaced (BSA; replacement of NRBA from 2 μM BSA, FIG. 4/5b): only replaced one molecule of the dye; also recorded: occupation of one binding site
